US12344606B2, “Next-generation modulators of stimulator of interferon genes (STING)” (RYVU THERAPEUTICS S.A., priority 2019, dated 2025)

Legend:
[1] = system: NF-κB pathway in THP-1 dual cells; assay: THP-1 Dual reporter assay, NF-κB pathway (SEAP); type: cell-based; details: Homo sapiens, THP1-Dual; 18 h stimulation, absorbance; read-out: THP1 Dual EC50 (μM) NFkB
Description: (§1) Compounds of the present invention were tested for their activity using THP-1 dual cells (Invivogen, cat no. thpd-nfis) allowing for simultaneous study of NF-κB pathway and the interferon regulatory factor (IRF) pathway. THP-1 dual cells contain luciferase reporter gene under the control of an ISG54 (interferon-stimulated gene) minimal promoter in conjunction with five interferon-stimulated response elements and a secreted embryonic alkaline phosphatase reporter gene under the control an IFN (interferon)-β minimal promoter fused to five copies of the NF-κB consensus transcriptional response element with three copies of the c-Rel binding site. Following 18 h of stimulation with STING agonist, medium was collected and transferred onto fresh cell culture plate. To verify activity of the IRF pathway, luminescence activity was measured with standard laboratory plate reader immediately after addition 10 μl of the medium to 50 μl (or 40 μl) of luminescence reagent (Invivogen, cat. No. rep-qlc2). To verify activity of NF-κB pathway, 20 μl (or 10 μl) of the medium was mixed with 80 μl of a detection medium (Invivogen, cat. No. rep-qb2) and incubated for 2 hours (or 1 hour) at 37° C. in a humidified atmosphere containing 5% CO2. Next, absorbance at 630 nm (or 655 nm) was recorded using standard laboratory plate reader.

[2] = system: interferon regulatory factor (IRF) pathway in THP-1 dual cells; assay: THP-1 Dual reporter assay, IRF pathway (luciferase); type: cell-based; details: Homo sapiens, THP1-Dual; 18 h stimulation, luminescence
Description: as §1

human STING = human STING (Homo sapiens, UniProt Q86WV6); assay: Fluorescence Thermal Shift assay (hSTING FTS binding assay); details: STING 0.1 mg/ml, 20 min preincubation, SyproOrange
human STING, sequence (Q86WV6 whole entry H232R): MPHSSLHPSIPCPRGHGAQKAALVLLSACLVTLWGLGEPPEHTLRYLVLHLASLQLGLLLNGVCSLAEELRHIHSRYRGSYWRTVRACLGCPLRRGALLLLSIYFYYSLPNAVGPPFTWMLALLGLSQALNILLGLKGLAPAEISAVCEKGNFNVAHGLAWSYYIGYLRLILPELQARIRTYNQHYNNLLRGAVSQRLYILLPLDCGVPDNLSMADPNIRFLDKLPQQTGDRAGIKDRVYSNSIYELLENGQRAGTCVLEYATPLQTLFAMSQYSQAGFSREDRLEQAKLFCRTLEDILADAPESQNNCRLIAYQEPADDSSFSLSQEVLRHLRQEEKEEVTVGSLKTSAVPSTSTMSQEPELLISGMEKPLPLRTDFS
Description: Compounds of the present invention were tested for binding to human STING in Fluorescence Thermal Shift assay. STING was preincubated with the compounds for 20 minutes in 50 mM Hepes, 150 mM NaCl, pH 7.5 in 16 μl volume, following by adding 4 μl of SyproOrange dye dilution (ThermoFisher, cat no. S-6651). Final STING concentration was 0.1 mg/ml. Thermal unfolding was performed in Real-Time PCR QuantStudio 6 Flex System (Applied Biosystems), from 25 to 99° C., with continuous ramp mode and ramp rate 0.033° C./s. The data were analyzed using Protein Thermal Shift Software (ThermoFisher).

Compound	EC50 [1] [µM]	EC50 [2] [µM]	hSTING FTS binding assay (ΔT C.°) (human STING)
Cc1cc(CN(Cc2cn(C)c3ccccc3c2=O)[C@H]2CCCN(c3ncc(Br)cn3)C2)ccn1 [Example 32, 3-({[(3S)-1-(5-bromopyrimidin-2-yl)piperidin-3-yl][(2-methylpyridin-4-yl)methyl]amino}methyl)-1-methyl-1,4-dihydroquinolin-4-one]	1 to 10	1 to 10	+ (ΔTm<10° C.)
Cc1cc(CN(Cc2cn(C)c3ccccc3c2=O)C2CN(c3cccnc3)CC(F)(F)C2)ccn1 (stereo not drawn) [Example 34, 3-({[5,5-difluoro-1-(pyridin-3-yl)piperidin-3-yl][(2-methylpyridin-4-yl)methyl]amino}methyl)-1-methyl-1,4-dihydroquinolin-4-one]	≥ 10	≥ 10	+ (ΔTm<10° C.)
Cc1cc(CN(Cc2c[nH]c3ccccc3c2=O)[C@H]2CCCN(c3cccnc3)C2)ccn1 [Example 35, 3-({[(2-methylpyridin-4-yl)methyl][(3S)-1-(pyridin-3-yl)piperidin-3-yl]amino}methyl)-1,4-dihydroquinolin-4-one]	1 to 10	≤ 1	++ (ΔTm>10° C.)
Cc1cc(CN(Cc2cn(C)c3ccccc3c2=O)[C@H]2CCCN(c3cccnc3[N+](=O)[O-])C2)ccn1 [Example 36, 1-methyl-3-({[(2-methylpyridin-4-yl)methyl][(3S)-1-(2-nitropyridin-3-yl)piperidin-3-yl]amino}methyl)-1,4-dihydroquinolin-4-one]	≥ 10	≥ 10	+ (ΔTm<10° C.)
Cc1ccc(N2CCC[C@H](N(Cc3ccnc(C)c3)Cc3cn(C)c4cc(Br)ccc4c3=O)C2)cn1 [Example 37, 7-bromo-1-methyl-3-({[(3S)-1-(6-methylpyridin-3-yl)piperidin-3-yl][(2-methylpyridin-4-yl)methyl]amino}methyl)-1,4-dihydroquinolin-4-one]	≤ 1	≤ 1	++ (ΔTm>10° C.)
Cc1cc(CN(Cc2cn(C)c3ccccc3c2=O)[C@H]2CCCN(c3cccnc3)C2)cc(C)n1 [Example 38, 3-({[(2,6-dimethylpyridin-4-yl)methyl][(3S)-1-(pyridine-3-yl)piperidin-3-yl]amino}methyl)-1-methyl-1,4-dihydroquinolin-4-one]	≥ 10	≥ 10	+ (ΔTm<10° C.)
Cn1cc(CN(Cc2ccncc2)[C@H]2CCCN(c3cccnc3)C2)c(=O)c2ccccc21 [Example 39, 1-methyl-3-({[(3S)-1-(pyridin-3-yl)piperidin-3-yl][(pyridin-4-yl)methyl]amino}methyl)-1,4-dihydroquinolin-4-one]	1 to 10	≤ 1	++ (ΔTm>10° C.)
Cc1ccc(N2CCC[C@H](N(Cc3ccnc(C)c3)Cc3cn(C4CC4)c4cc(Cl)c(F)cc4c3=O)C2)cn1 [Example 40, 7-chloro-1-cyclopropyl-6-fluoro-3-({[(3S)-1-(6-methylpyridin-3-yl)piperidin-3-yl][(2-methylpyridin-4-yl)methyl]amino}methyl)-1,4-dihydroquinolin-4-one]	≤ 1	≤ 1	++ (ΔTm>10° C.)
Cc1cc(CN(Cc2cn(C)c3ccccc3c2=O)[C@H]2CCCN(c3ccn(C)c(=O)c3)C2)ccn1 [Example 41, 1-methyl-3-({[(3S)-1-(1-methyl-2-oxo-1,2-dihydropyridin-4-yl)piperidin-3-yl][(2-methylpyridin-4-yl)methyl]amino}methyl)-1,4-dihydroquinolin-4-one]	≥ 10	≥ 10	+ (ΔTm<10° C.)
Cc1ccc(N2CCC[C@H](N(Cc3ccnc(C)c3)Cc3cn(C4CC4)c4nc(Cl)c(F)cc4c3=O)C2)cn1 [Example 42, 7-chloro-1-cyclopropyl-6-fluoro-3-({[(3S)-1-(6-methylpyridin-3-yl)piperidin-3-yl][(2-methylpyridin-4-yl)methyl]amino}methyl)-1,4-dihydro-1,8-naphthyridin-4-one]	≤ 1	≤ 1	++ (ΔTm>10° C.)
Cc1ccc(N2CCC[C@H](N(Cc3ccnc(C)c3)Cc3cn(C4CC4)c4[nH]c(=O)c(F)cc4c3=O)C2)cn1 [Example 43, 1-cyclopropyl-6-fluoro-7-hydroxy-3-({[(3S)-1-(6-methylpyridin-3-yl)piperidin-3-yl][(2-methylpyridin-4-yl)methyl]amino}methyl)-1,4-dihydro-1,8-naphthyridin-4-one]	≥ 10	≥ 10	++ (ΔTm>10° C.)
COc1nc2c(cc1F)c(=O)c(CN(Cc1ccnc(C)c1)[C@H]1CCCN(c3ccc(C)nc3)C1)cn2C1CC1 [Example 44, 1-cyclopropyl-6-fluoro-7-methoxy-3-({[(3S)-1-(6-methylpyridin-3-yl)piperidin-3-yl][(2-methylpyridin-4-yl)methyl]amino}methyl)-1,4-dihydro-1,8-naphthyridin-4-one]	≤ 1	≤ 1	++ (ΔTm>10° C.)
COc1cc2c(cc1F)c(=O)c(CN(Cc1ccnc(C)c1)[C@H]1CCCN(c3ccc(C)nc3)C1)cn2C1CC1 [Example 45, 1-cyclopropyl-6-fluoro-7-methoxy-3-({[(3S)-1-(6-methylpyridin-3-yl)piperidin-3-yl][(2-methylpyridin-4-yl)methyl]amino}methyl)-1,4-dihydroquinolin-4-one]	≤ 1	≤ 1	++ (ΔTm>10° C.)
Cc1ccc(N2CCC[C@H](N(Cc3ccnc(C)c3)Cc3cn(C4CC4)c4cc(N5CCN[C@H](C)C5)c(F)cc4c3=O)C2)cn1 [Example 46, 1-cyclopropyl-6-fluoro-7-[(3R)-3-methylpiperazin-1-yl]-3-({[(3S)-1-(6-methylpyridin-3-yl)piperidin-3-yl][(2-methylpyridin-4-yl)methyl]amino}methyl)-1,4-dihydroquinolin-4-one]	≤ 1	≤ 1	++ (ΔTm>10° C.)
Cc1ccc(N2CCC[C@H](N(Cc3ccnc(C)c3)Cc3cn(C4CC4)c4cc(N5CCNCC5)c(F)cc4c3=O)C2)cn1 [Example 47, 1-cyclopropyl-6-fluoro-3-({[(3S)-1-(6-methylpyridin-3-yl)piperidin-3-yl][(2-methylpyridin-4-yl)methyl]amino}methyl)-7-(piperazin-1-yl)-1,4-dihydroquinolin-4-one]	≤ 1	≤ 1	++ (ΔTm>10° C.)
Cc1ccc(N2CCC[C@H](N(Cc3ccnc(C)c3)Cc3cn(C4CC4)c4cc(N5CCN(CC(F)F)CC5)c(F)cc4c3=O)C2)cn1 [Example 48, 1-cyclopropyl-7-[4-(2,2-difluoroethyl)piperazin-1-yl]-6-fluoro-3-({[(3S)-1-(6-methylpyridin-3-yl)piperidin-3-yl][(2-methylpyridin-4-yl)methyl]amino}methyl)-1,4-dihydroquinolin-4-one]	≤ 1	≤ 1	++ (ΔTm>10° C.)
Cc1ccc(N2CCC[C@H](N(Cc3ccnc(C)c3)Cc3cn(C)c4cc(N5CCNCC5=O)ccc4c3=O)C2)cn1 [Example 49, 1-methyl-3-({[(3S)-1-(6-methylpyridin-3-yl)piperidin-3-yl][(2-methylpyridin-4-yl)methyl]amino}methyl)-7-(2-oxopiperazin-1-yl)-1,4-dihydroquinolin-4-one]	≥ 10	≥ 10	+ (ΔTm<10° C.)
Cc1ccc(N2CCC[C@H](N(Cc3ccnc(C)c3)Cc3cn(C4COC4)c4ccccc4c3=O)C2)cn1 [Example 50, 3-({[(3S)-1-(6-methylpyridin-3-yl)piperidin-3-yl][(2-methylpyridin-4-yl)methyl]amino}methyl)-1-(oxetan-3-yl)-1,4-dihydroquinolin-4-one]	≤ 1	≤ 1	++ (ΔTm>10° C.)
Cc1ccc(N2CCC[C@H](N(Cc3ccnc(C)c3)Cc3cn(CC(=O)O)c4ccccc4c3=O)C2)cn1 [Example 51, 2-[3-({[(3S)-1-(6-Methylpyridin-3-yl)piperidin-3-yl][(2-methylpyridin-4-yl)methyl]amino}methyl)-4-oxo-1,4-dihydroquinolin-1-yl]acetic acid]	≥ 10	≥ 10	++ (ΔTm>10° C.)
